Results reported in ChEMBL document CHEMBL1833803, “Discovery of 1-amino-5H-pyrido[4,3-b]indol-4-carboxamide inhibitors of Janus kinase 2 (JAK2) for the treatment of myeloproliferative disorders” (J Med Chem, 2011).
pIC50: −log10 of the molar value. ≈ marks a conversion by molar mass, not a printed value.

Tests used:
[1] = target: T1, Tyrosine-protein kinase JAK2 (Homo sapiens, UniProt O60674); assay: Inhibition of JAK2
[2] = target: T2, Tyrosine-protein kinase JAK3 (Homo sapiens, UniProt P52333); assay: Inhibition of JAK3
T2 sequence (P52333 whole entry): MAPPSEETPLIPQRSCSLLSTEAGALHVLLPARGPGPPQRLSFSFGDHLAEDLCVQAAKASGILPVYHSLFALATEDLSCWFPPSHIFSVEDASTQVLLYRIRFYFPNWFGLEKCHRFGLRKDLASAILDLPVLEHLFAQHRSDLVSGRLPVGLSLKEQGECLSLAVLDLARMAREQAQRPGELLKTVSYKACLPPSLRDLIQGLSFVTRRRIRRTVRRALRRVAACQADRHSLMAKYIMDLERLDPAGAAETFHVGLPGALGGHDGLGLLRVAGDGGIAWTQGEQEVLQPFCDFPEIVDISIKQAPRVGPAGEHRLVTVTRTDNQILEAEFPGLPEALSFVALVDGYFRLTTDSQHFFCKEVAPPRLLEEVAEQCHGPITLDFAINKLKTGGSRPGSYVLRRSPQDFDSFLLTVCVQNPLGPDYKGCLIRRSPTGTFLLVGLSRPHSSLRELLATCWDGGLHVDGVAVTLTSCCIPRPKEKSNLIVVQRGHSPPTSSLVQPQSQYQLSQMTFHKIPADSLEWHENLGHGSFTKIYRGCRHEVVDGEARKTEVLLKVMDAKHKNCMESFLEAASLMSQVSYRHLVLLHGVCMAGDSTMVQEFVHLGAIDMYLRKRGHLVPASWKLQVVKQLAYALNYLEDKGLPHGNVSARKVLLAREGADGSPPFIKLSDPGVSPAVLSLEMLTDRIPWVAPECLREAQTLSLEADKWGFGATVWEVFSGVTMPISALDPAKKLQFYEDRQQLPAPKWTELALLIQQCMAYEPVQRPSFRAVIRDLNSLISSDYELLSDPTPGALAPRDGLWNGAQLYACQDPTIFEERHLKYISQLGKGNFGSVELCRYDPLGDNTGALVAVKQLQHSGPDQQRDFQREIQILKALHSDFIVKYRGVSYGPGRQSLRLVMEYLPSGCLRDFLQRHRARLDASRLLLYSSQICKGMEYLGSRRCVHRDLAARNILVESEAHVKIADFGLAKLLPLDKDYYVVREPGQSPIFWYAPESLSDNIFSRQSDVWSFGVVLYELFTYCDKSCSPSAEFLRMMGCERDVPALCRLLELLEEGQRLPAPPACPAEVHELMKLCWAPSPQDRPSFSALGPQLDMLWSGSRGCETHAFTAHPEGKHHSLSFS

[3] = Selectivity ratio of IC50 for JAK3 to IC50 for JAK2
[4] = target: T1, Tyrosine-protein kinase JAK2; assay: Competitive inhibition of JAK2 in the presence of 15 uM ATP
[5] = target: T1, Tyrosine-protein kinase JAK2; assay: Competitive inhibition of JAK2 in the presence of 2 mM ATP
[6] = Lipophilicity, log D of the compound at pH 7.4; type: physicochemical; details: buffer
[7] = Aqueous solubility of the compound; type: physicochemical; details: buffer
[8] = Oral bioavailability in rat at 2 mg/kg; type: ADME, organism-based; details: in vivo
[9] = target: T1, Tyrosine-protein kinase JAK2; assay: Inhibition of JAK2 using biotin-EQEDEPEGDYFEWLE- NH2 as substrate
[10] = target: T3, Tyrosine-protein kinase JAK2 (Homo sapiens, UniProt O60674, V617F); assay: Inhibition of JAK2 V617F mutant
[11] = target: T3, Tyrosine-protein kinase JAK2; assay: Inhibition of JAK2 V617F mutant-mediated STAT5 phosphorylation in mouse BAF3 cells; type: cell-based
[12] = target: CYP3A4 (Homo sapiens, UniProt P08684); assay: Inhibition of CYP3A4 at 10 uM; type: ADME
[13] = Half life in rat at 1 mg/kg, iv; type: ADME, organism-based; set-up: dose 1 mg/kg, route intravenous; details: in vivo
[14] = target: T1, Tyrosine-protein kinase JAK2; assay: Inhibition of JAK2-mediated STAT5 phosphorylation in human HEL 92.1.7 irf1-bla cells; type: cell-based
[15] = Clearance in rat at 1 mg/kg, iv; type: ADME, organism-based; set-up: dose 1 mg/kg, route intravenous; details: in vivo
[16] = target: CYP2C9 (Homo sapiens, UniProt P11712); assay: Inhibition of CYP2C9 at 10 uM; type: ADME
[17] = target: Potassium voltage-gated channel subfamily E member 1 (Homo sapiens, UniProt P15382); assay: Inhibition of Iks channel
[18] = target: Voltage-dependent L-type calcium channel subunit alpha-1C (Rattus norvegicus, UniProt P22002); assay: Inhibition of rat CaV1.2
[19] = target: Sodium channel protein type 5 subunit alpha (Homo sapiens, UniProt Q14524); assay: Inhibition of NaV1.5
[20] = target: Cytochrome P450 3A4 (Homo sapiens, UniProt P08684); assay: Inhibition of CYP3A4; type: ADME
[21] = target: Cytochrome P450 2C9 (Homo sapiens, UniProt P11712); assay: Inhibition of CYP2C9; type: ADME
[22] = target: Cytochrome P450 2D6 (Homo sapiens, UniProt P10635); assay: Inhibition of CYP2D6; type: ADME
[23] = tested on: Rattus norvegicus; assay: Dose normalized AUC in rat at 1 mg/kg, iv; type: ADME, organism-based; set-up: dose 1 mg/kg, route intravenous; details: in vivo
[24] = Plasma clearance in rat at 1 mg/kg, iv; type: ADME, organism-based; set-up: dose 1 mg/kg, route intravenous
[25] = Volume of distribution at steady state in rat at 1 mg/kg, iv; type: ADME, organism-based; set-up: dose 1 mg/kg, route intravenous; details: in vivo, read-out: Vdss
[26] = tested on: Canis familiaris; assay: Dose normalized AUC in dog at 0.5 mg/kg, iv; type: ADME, organism-based, Canis lupus familiaris; set-up: dose 0.5 mg/kg, route intravenous; details: in vivo
[27] = Plasma clearance in dog at 0.5 mg/kg, iv; type: ADME, organism-based, Canis lupus familiaris; set-up: dose 0.5 mg/kg, route intravenous
[28] = Volume of distribution at steady state in dog at 0.5 mg/kg, iv; type: ADME, organism-based, Canis lupus familiaris; set-up: dose 0.5 mg/kg, route intravenous; details: in vivo, read-out: Vdss
[29] = Half life in dog at 0.5 mg/kg, iv; type: ADME, organism-based, Canis lupus familiaris; set-up: dose 0.5 mg/kg, route intravenous; details: in vivo
[30] = tested on: Rhesus monkey; assay: Dose normalized AUC in monkey at 0.5 mg/kg, iv; type: ADME, organism-based, Macaca mulatta; set-up: dose 0.5 mg/kg, route intravenous; details: in vivo
[31] = Plasma clearance in monkey at 0.5 mg/kg, iv; type: ADME, organism-based, Macaca mulatta; set-up: dose 0.5 mg/kg, route intravenous; details: rhesus monkey
[32] = Volume of distribution at steady state in monkey at 0.5 mg/kg, iv; type: ADME, organism-based, Macaca mulatta; set-up: dose 0.5 mg/kg, route intravenous; details: rhesus monkey, in vivo, read-out: Vdss
[33] = Half life in monkey at 0.5 mg/kg, iv; type: ADME, organism-based, Macaca mulatta; set-up: dose 0.5 mg/kg, route intravenous; details: rhesus monkey, in vivo
[34] = tested on: Rattus norvegicus; assay: Dose normalized AUC in rat at 2 mg/kg, po; type: ADME, organism-based; set-up: dose 2 mg/kg, route oral; details: in vivo
[35] = Cmax in rat at 2 mg/kg, po; type: ADME, organism-based; set-up: dose 2 mg/kg, route oral; details: in vivo
[36] = Tmax in rat at 2 mg/kg, po; type: ADME, organism-based; set-up: dose 2 mg/kg, route oral; details: in vivo
[37] = tested on: Canis familiaris; assay: Dose normalized AUC in dog at 1 mg/kg, po; type: ADME, organism-based, Canis lupus familiaris; set-up: dose 1 mg/kg, route oral; details: in vivo
[38] = Cmax in dog at 1 mg/kg, po; type: ADME, organism-based, Canis lupus familiaris; set-up: dose 1 mg/kg, route oral; details: in vivo
[39] = Tmax in dog at 1 mg/kg, po; type: ADME, organism-based, Canis lupus familiaris; set-up: dose 1 mg/kg, route oral; details: in vivo
[40] = Oral bioavailability in dog at 1 mg/kg; type: ADME, organism-based, Canis lupus familiaris; details: in vivo
[41] = tested on: Rhesus monkey; assay: Dose normalized AUC in monkey at 1 mg/kg, po; type: ADME, organism-based, Macaca mulatta; set-up: dose 1 mg/kg, route oral; details: in vivo
[42] = Cmax in monkey at 1 mg/kg, po; type: ADME, organism-based, Macaca mulatta; set-up: dose 1 mg/kg, route oral; details: rhesus monkey, in vivo
[43] = Tmax in monkey at 1 mg/kg, po; type: ADME, organism-based, Macaca mulatta; set-up: dose 1 mg/kg, route oral; details: rhesus monkey, in vivo
[44] = Oral bioavailability in monkey at 1 mg/kg; type: ADME, organism-based, Macaca mulatta; details: rhesus monkey, in vivo
[45] = tested on: Mus musculus; assay: Reduction in pSTAT5 concentration in po dosed darbepoetin-stimulated C57B1/6 mouse
[46] = species on record: Mus musculus; assay: Prevention of darbepoetin-induced elevation of hematocrit in C57/BL6 mouse PV model; type: functional, organism-based; details: C57Bl/6
[47] = species on record: Mus musculus; assay: Prevention of darbepoetin-induced increase in spleen weight in C57/BL6 mouse PV model; type: functional, organism-based; details: C57Bl/6
[48] = target: Tyrosine-protein kinase JAK1 (Homo sapiens, UniProt P23458); assay: Inhibition of JAK1
[49] = target: Non-receptor tyrosine-protein kinase TYK2 (Homo sapiens, UniProt P29597); assay: Inhibition of TYK2
[50] = Plasma clearance in rat at 2 mg/kg, iv and 4 mg/kg, po; type: ADME, organism-based
[51] = Oral bioavailability in rat at 4 mg/kg; type: ADME, organism-based; details: in vivo
[52] = Plasma clearance in rat at 1 mg/kg, iv and 2 mg/kg, po; type: ADME, organism-based

T1 sequence (O60674 whole entry): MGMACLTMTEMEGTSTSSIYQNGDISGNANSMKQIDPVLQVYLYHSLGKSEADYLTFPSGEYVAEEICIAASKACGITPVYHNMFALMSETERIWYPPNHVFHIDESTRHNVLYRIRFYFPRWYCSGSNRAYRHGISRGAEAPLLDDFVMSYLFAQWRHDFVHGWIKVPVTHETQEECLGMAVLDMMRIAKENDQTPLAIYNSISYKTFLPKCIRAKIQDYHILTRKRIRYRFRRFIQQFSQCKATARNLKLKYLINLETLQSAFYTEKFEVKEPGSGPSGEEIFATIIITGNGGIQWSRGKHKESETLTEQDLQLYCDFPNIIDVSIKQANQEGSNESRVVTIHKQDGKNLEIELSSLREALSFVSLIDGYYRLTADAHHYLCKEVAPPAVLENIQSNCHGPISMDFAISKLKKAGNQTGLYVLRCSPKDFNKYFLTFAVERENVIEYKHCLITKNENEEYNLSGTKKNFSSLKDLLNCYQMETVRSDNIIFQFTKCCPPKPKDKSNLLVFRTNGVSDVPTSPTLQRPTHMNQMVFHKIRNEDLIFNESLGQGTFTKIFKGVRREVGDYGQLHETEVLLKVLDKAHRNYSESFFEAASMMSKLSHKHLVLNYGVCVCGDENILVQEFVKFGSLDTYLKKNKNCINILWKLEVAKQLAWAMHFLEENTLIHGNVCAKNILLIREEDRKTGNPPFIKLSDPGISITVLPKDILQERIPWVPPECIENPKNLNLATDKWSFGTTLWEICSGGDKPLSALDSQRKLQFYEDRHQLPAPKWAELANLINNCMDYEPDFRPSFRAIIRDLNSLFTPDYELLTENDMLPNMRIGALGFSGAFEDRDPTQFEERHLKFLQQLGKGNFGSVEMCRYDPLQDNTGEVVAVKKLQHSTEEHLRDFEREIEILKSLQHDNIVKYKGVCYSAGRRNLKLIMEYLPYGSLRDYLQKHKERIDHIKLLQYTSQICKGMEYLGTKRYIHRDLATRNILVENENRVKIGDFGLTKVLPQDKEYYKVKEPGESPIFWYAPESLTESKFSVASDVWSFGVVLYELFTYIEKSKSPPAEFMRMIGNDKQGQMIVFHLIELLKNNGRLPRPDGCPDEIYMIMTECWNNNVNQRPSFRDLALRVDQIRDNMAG
T3 sequence (O60674 whole entry V617F): as the sequence (O60674 whole entry) above, with V617F counted along it
Chain of Sodium channel protein type 5 subunit alpha (Q14524 whole entry): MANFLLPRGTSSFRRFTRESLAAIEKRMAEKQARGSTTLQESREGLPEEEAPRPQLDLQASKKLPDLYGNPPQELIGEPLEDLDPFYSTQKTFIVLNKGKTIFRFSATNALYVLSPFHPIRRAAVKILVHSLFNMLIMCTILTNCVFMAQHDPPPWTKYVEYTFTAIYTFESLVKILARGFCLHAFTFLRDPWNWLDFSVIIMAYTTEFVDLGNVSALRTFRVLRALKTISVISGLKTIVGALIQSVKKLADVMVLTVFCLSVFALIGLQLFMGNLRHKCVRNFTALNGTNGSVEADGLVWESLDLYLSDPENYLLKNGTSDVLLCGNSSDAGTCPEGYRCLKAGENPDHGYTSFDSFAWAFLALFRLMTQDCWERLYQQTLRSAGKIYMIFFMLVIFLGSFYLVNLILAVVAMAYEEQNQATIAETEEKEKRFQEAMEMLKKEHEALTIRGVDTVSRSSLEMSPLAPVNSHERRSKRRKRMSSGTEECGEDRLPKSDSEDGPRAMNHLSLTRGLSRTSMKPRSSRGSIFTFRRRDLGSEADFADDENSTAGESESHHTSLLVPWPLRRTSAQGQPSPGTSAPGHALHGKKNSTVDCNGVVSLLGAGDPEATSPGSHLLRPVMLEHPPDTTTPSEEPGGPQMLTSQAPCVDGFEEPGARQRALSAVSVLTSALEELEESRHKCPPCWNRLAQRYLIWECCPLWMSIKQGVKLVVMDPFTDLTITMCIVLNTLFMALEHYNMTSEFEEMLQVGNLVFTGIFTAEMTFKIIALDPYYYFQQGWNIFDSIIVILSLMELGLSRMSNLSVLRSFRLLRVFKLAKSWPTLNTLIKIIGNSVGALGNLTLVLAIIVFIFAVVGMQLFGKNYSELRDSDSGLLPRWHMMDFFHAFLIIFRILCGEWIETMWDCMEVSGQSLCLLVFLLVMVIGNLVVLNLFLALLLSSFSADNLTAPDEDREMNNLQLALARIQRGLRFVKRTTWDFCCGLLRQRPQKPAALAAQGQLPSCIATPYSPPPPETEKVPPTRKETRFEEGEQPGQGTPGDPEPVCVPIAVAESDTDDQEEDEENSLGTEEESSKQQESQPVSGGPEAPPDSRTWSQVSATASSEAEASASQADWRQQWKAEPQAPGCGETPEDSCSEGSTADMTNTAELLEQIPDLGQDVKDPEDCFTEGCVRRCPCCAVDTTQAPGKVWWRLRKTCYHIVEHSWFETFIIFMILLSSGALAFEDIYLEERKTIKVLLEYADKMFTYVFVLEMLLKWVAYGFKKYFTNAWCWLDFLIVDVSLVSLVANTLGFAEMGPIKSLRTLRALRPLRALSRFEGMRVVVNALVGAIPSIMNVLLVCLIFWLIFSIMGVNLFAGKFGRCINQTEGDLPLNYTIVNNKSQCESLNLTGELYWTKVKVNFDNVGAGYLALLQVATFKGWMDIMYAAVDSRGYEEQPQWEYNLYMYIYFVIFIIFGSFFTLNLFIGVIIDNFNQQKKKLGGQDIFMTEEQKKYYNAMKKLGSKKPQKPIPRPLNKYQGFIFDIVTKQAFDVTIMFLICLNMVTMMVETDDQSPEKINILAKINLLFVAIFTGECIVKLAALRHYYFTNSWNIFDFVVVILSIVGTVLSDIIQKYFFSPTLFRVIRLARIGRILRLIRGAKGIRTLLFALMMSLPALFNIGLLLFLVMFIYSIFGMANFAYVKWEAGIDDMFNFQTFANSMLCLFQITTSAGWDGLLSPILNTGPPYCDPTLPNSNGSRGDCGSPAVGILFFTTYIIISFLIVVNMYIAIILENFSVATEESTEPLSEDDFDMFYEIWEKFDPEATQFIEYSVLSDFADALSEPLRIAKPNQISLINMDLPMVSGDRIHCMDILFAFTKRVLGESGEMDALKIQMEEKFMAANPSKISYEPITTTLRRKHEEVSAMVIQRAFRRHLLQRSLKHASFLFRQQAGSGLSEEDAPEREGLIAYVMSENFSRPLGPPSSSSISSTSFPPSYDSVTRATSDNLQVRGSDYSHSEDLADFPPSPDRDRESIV
Chain of Cytochrome P450 2D6 (P10635 whole entry): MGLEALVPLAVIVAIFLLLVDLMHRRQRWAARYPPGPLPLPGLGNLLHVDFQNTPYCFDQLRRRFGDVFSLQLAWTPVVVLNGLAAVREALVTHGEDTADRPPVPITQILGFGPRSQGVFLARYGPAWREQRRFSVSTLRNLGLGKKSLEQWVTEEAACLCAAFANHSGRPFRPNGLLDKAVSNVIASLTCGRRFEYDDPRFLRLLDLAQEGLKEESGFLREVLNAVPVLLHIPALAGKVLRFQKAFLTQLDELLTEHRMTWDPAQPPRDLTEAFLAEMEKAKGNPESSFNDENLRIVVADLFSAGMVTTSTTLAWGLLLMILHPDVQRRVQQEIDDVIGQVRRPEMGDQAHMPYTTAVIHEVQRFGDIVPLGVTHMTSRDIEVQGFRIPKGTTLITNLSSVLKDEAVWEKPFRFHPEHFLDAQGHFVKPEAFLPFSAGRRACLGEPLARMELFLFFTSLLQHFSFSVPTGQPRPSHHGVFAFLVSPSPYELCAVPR
Chain of CYP2C9 (P11712 whole entry): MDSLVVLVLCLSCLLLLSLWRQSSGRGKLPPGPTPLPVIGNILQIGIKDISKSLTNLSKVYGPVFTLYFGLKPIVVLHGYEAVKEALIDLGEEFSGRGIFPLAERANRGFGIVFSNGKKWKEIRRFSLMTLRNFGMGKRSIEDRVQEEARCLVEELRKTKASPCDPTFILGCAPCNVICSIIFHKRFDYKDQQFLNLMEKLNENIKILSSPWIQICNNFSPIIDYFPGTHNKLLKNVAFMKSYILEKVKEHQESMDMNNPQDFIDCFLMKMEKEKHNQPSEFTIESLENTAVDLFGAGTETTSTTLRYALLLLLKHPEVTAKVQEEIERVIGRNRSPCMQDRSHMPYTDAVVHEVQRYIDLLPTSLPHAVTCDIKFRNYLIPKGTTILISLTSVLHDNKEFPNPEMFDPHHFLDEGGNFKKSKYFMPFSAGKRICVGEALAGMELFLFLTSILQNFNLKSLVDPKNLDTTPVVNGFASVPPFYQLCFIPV
Chain of Cytochrome P450 2C9 (P11712 whole entry): as above

## CCNc1ncc(C(N)=O)c2[nH]c3ccc(F)cc3c12
[1]
  pIC50: 6.64
[2]
  pIC50: 5.17
[3]
  Ratio IC50: 30
[4]
  pIC50: 6.64
[5]
  pIC50: < 4.82
[6]
  logD: 2
[7]
  solubility: 6 µM (≈ 1.63 µg/mL)
[8]
  bioavailability: 87%
[9]
  pIC50: 6.64

## NC(=O)c1cnc(N[C@H](C2CC2)C(F)(F)F)c2c1[nH]c1cc(-c3cnc(N)nc3)ccc12
[10]
  pIC50: 9.40
[11]
  pIC50: 7.96
[12]
  inhibition at 10 µM: 30%
[13]
  half-life: 4.5 h
[14]
  pIC50: 7.60
[15]
  clearance: 7 mL/min/kg
[16]
  inhibition at 10 µM: 34%
[17]
  pIC50: < 5.00
[18]
  pIC50: < 4.52
[19]
  pIC50: < 4.52
[20]
  pIC50: < 4.12
[21]
  pIC50: < 4.12
[22]
  pIC50: < 4.12
[23]
  AUC/dose: 5.3 µM·h/mg/kg
[24]
  clearance: 7.4 mL/min/kg
[25]
  Vd: 2.5 L/kg
[26]
  AUC/dose: 2.4 µM·h/mg/kg
[27]
  clearance: 18 mL/min/kg
[28]
  Vd: 6.1 L/kg
[29]
  half-life: 5.2 h
[30]
  AUC/dose: 5.2 µM·h/mg/kg
[31]
  clearance: 7.4 mL/min/kg
[32]
  Vd: 4.7 L/kg
[33]
  half-life: 7.3 h
[34]
  AUC/dose: 3.4 µM·h/mg/kg
[35]
  Cmax: 600 nM
[36]
  Tmax: 6 h
[8]
  bioavailability: 67%
[37]
  AUC/dose: 2.5 µM·h/mg/kg
[38]
  Cmax: 300 nM
[39]
  Tmax: 5.1 h
[40]
  bioavailability: 120%
[41]
  AUC/dose: 3.4 µM·h/mg/kg
[42]
  Cmax: 200 nM
[43]
  Tmax: 6 h
[44]
  bioavailability: 66%
[45]
  pIC50: 5.92
[46]
  Activity: Dose-dependent effect
[9]
  pIC50: 9.10
[47]
  Activity: Dose-dependent effect

## O=c1[nH]ccc2c3[nH]c(-c4ccccc4Cl)nc3c3ccc(F)cc3c12
[48]
  pIC50: 8.70
[49]
  pIC50: 8.15
[1]
  pIC50: 8.52
[2]
  pIC50: 7.11
[3]
  Ratio IC50: 26
[50]
  clearance: 5.4 mL/min/kg
[51]
  bioavailability: 100%
[6]
  logD: 3.6
[7]
  solubility: < 2 µM

## O=c1[nH]ccc2c1c1cc(F)ccc1n2-c1ccccc1
[1]
  pIC50: 5.96
[2]
  pIC50: 6.14
[3]
  Ratio IC50: 0.7
[52]
  clearance: 13 mL/min/kg
[6]
  logD: 4.3
[8]
  bioavailability: 89%
